# Columns and labels:
# [1] = target: T1, Human LPA3 (Homo sapiens, UniProt Q9UBY5); assay: LPA3 calcium flux assay; format: cell-based; conditions: CHO cells expressing human LPA3, 10 nM LPA; read-out: HLPA3 Ca Flux IC50
# T1 construct: The full-length cDNA fragment for human LPA3 was obtained by PCR from the vector; expressed in transfected cells; cDNA from the Missouri S&T cDNA Resource Center
# T1 sequence (Q9UBY5 1-353): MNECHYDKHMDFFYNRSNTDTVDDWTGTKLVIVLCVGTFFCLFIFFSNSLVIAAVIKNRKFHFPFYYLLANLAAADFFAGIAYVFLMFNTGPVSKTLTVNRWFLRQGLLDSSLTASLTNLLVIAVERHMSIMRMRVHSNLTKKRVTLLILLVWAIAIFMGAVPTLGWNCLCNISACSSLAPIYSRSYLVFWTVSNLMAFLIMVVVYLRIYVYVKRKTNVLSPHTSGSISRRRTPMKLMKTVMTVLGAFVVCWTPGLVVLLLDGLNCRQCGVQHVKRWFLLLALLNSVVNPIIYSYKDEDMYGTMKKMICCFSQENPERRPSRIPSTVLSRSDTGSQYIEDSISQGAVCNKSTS
# Method: A vector containing the human LPA3 receptor cDNA was obtained from the Missouri S&T cDNA Resource Center (www.cdna.org). The full-length cDNA fragment for human LPA3 was obtained by PCR from the vector. The nucleotide sequence of the cloned human LPA3 was determined by sequencing and confirmed to be identical to the published human LPA3 sequence (NCBI accession number NM_012152). The cDNA was cloned into the pcDNA5/FRT expression plasmid and transfected in CHO cells using lipofectamine 2000 (Invitrogen Corp., USA). Clones stably expressing human LPA3 were selected using hygromycin and identified as cells that show Ca-influx in response to LPA.
# (§1) Human LPA1 or LPA3 expressing CHO cells are seeded at 20,000-45,000 cells per well in a 96-well poly-D-lysine coated plate one or two days before the assay. Prior to the assay, the cells are washed once with PBS and then cultured in serum-free media overnight. On the day of the assay, a calcium indicator dye (Calcium 4, Molecular Devices) in assay buffer (HBSS with Ca^2+and Mg^2+ and containing 20 mM Hepes and 0.3% fatty-acid free human serum albumin) is added to each well and incubation continued for 1 hour at 37° C. 10 μl of test compounds in 2.5% DMSO are added to the cells and incubation continued at room temperature for 30 minutes. Cells are the stimulated by the addition of 10 nM LPA and intracellular Ca^2+ measured using the Flexstation 3 (Molecular Devices). IC50s are determined using Graphpad prism analysis of drug titration curves.
# [2] = target: T2, Human LPA1 (Homo sapiens, UniProt Q92633); assay: LPA1 calcium flux assay; format: cell-based; conditions: CHO cells expressing human LPA1, 10 nM LPA; read-out: HLPA1 Ca Flux IC50
# T2 construct: the full-length cDNA for human LPA1 was obtained by PCR of the reverse transcription reaction; expressed in transfected cells
# T2 sequence (Q92633 whole entry): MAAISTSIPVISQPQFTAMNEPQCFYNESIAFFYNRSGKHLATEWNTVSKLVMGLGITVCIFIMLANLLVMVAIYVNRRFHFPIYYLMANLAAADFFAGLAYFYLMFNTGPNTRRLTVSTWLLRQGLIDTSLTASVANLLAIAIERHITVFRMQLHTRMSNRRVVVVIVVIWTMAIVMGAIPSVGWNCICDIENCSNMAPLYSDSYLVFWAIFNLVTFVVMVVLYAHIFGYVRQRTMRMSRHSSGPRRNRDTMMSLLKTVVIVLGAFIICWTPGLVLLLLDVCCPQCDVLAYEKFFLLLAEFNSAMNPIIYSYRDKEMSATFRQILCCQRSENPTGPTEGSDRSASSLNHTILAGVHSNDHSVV
# Method: A 1.1 kb cDNA encoding the human LPA1 receptor was cloned from human lung. Human lung RNA (Clontech Laboratories, Inc. USA) was reverse transcribed using the RETROscript kit (Ambion, Inc.) and the full-length cDNA for human LPA1 was obtained by PCR of the reverse transcription reaction. The nucleotide sequence of the cloned human LPA1 was determined by sequencing and confirmed to be identical to the published human LPA1 sequence (An et al. Biochem. Biophys. Res. Commun. 231:619 (1997). The cDNA was cloned into the pcDNA5/FRT expression plasmid and transfected in CHO cells using lipofectamine 2000 (Invitrogen Corp., USA). Clones stably expressing human LPA1 were selected using hygromycin and identified as cells that show Ca-influx in response to LPA.
# as §1
IC50 [1] [µM],IC50 [2] [µM],Compound
1 to 10,< 0.3,"Cc1noc(-c2ccc(-c3ccc(C4(C(=O)O)CC4)cc3)cc2)c1NC(=O)OC(C)c1ccccc1 (racemic) [Compound 34, 1-{4′-[3-Methyl-4-(1-phenyl-ethoxycarbonylamino)-isoxazol-5-yl]-biphenyl-4-yl}-cyclopropanecarboxylic acid]"
,1 to 10,"Cc1noc(-c2ccc(-c3ccc(C4(C(=O)O)CC4)cc3)cc2)c1NC(=O)O[C@@H](C)C1CC1 (single isomer, unassigned) [Compound 5]"
> 10,< 0.3,"Cc1noc(-c2ccc(-c3ccc(C4(C(=O)O)CC4)cc3)cc2)c1NC(=O)O[C@H](C)C1CC1 (single isomer, unassigned) [Compound 6]"
,1 to 10,"Cc1noc(-c2ccc(-c3ccc(C4(C(=O)O)CC4)cc3)cc2)c1NC(=O)OC(C)c1ccc(C(F)(F)F)cc1 (single isomer, unassigned) [Compound 13, 1-(4′-{3-Methyl-4-[1-(4-trifluoromethyl-phenyl)-ethoxycarbonylamino]-isoxazol-5-yl}-biphenyl-4-yl)-cyclopropanecarboxylic acid]"
1 to 10,< 0.3,"Cc1noc(-c2ccc(-c3ccc(C4(C(=O)O)CC4)cc3)cc2)c1NC(=O)OC(C)c1ccc(C(F)(F)F)cc1 (single isomer, unassigned) [Compound 14, 1-(4′-{3-Methyl-4-[1-(4-trifluoromethyl-phenyl)-ethoxycarbonylamino]-isoxazol-5-yl}-biphenyl-4-yl)-cyclopropanecarboxylic acid]"
1 to 10,< 0.3,"Cc1noc(-c2ccc(-c3ccc(C4(C(=O)O)CC4)cc3)cc2)c1NC(=O)OC(C)C1CCCCC1 (centres unmarked) [Compound 2, 1-{4′-[4-(1-Cyclohexyl-ethoxycarbonylamino)-3-methyl-isoxazol-5-yl]-biphenyl-4-yl}-cyclopropanecarboxylic acid]"
0.3 to 1,< 0.3,"Cc1ccccc1[C@@H](C)OC(=O)Nc1c(C)noc1-c1ccc(-c2ccc(C3(C(=O)O)CC3)cc2)cc1 [Compound 3, 1-{4′-[3-Methyl-4-((R)-1-o-tolyl-ethoxycarbonylamino)-isoxazol-5-yl]-biphenyl-4-yl}-cyclopropanecarboxylic acid]"
> 10,< 0.3,"Cc1noc(-c2ccc(-c3ccc(C4(C(=O)O)CC4)cc3)cc2)c1NC(=O)OCC1CC1 [Compound 7, 1-[4′-(4-Cyclopropylmethoxycarbonylamino-3-methyl-isoxazol-5-yl)-biphenyl-4-yl]-cyclopropanecarboxylic acid]"
1 to 10,< 0.3,"Cc1noc(-c2ccc(-c3ccc(C4(C(=O)O)CC4)cc3)cc2)c1NC(=O)O[C@H](C)c1ccccc1C(F)(F)F [Compound 9, 1-(4′-{3-Methyl-4-[(R)-1-(2-trifluoromethyl-phenyl)-ethoxycarbonylamino]-isoxazol-5-yl}-biphenyl-4-yl)-cyclopropanecarboxylic acid]"
1 to 10,< 0.3,"Cc1noc(-c2ccc(-c3ccc(C4(C(=O)O)CCC4)cc3)cc2)c1NC(=O)O[C@H](C)c1ccccc1 [Compound 10, 1-{4′-[3-Methyl-4-((R)-1-phenyl-ethoxycarbonylamino)-isoxazol-5-yl]-biphenyl-4-yl}-cyclobutanecarboxylic acid]"
1 to 10,< 0.3,"Cc1noc(-c2ccc(-c3ccc(C4(C(=O)O)CCCC4)cc3)cc2)c1NC(=O)O[C@H](C)c1ccccc1 [Compound 11, 1-{4′-[3-Methyl-4-((R)-1-phenyl-ethoxycarbonylamino)-isoxazol-5-yl]-biphenyl-4-yl}-cyclopentanecarboxylic acid]"
,< 0.3,"COc1ccccc1C(C)OC(=O)Nc1c(C)noc1-c1ccc(-c2ccc(C3(C(=O)O)CC3)cc2)cc1 (centres unmarked) [Compound 12, 1-(4′-{4-[1-(2-Methoxy-phenyl)-ethoxycarbonylamino]-3-methyl-isoxazol-5-yl}-biphenyl-4-yl)-cyclopropanecarboxylic acid]"
1 to 10,< 0.3,"Cc1noc(-c2ccc(-c3ccc(C4(C(=O)O)CC4)cc3)cc2)c1NC(=O)OC(C)c1cccc(C#N)c1 (centres unmarked) [Compound 15, 1-(4′-{4-[1-(3-Cyano-phenyl)-ethoxycarbonylamino]-3-methyl-isoxazol-5-yl}-biphenyl-4-yl)-cyclopropanecarboxylic acid]"
1 to 10,< 0.3,"Cc1noc(-c2ccc(-c3ccc(C4(C(=O)O)CC4)cc3)cc2)c1NC(=O)O[C@H](C)c1ccc(C#N)cc1 [Compound 18, 1-(4′-{4-[(R)-1-(4-Cyano-phenyl)-ethoxycarbonylamino]-3-methyl-isoxazol-5-yl}-biphenyl-4-yl)-cyclopropanecarboxylic acid]"
1 to 10,< 0.3,"Cc1noc(-c2ccc(-c3ccc(C4(C(=O)O)CC4)cc3)cc2)c1NC(=O)O[C@H](C)C1CCC1 [Compound 20, 1-{4′-[4-((R)-1-Cyclobutyl-ethoxycarbonylamino)-3-methyl-isoxazol-5-yl]-biphenyl-4-yl}-cyclopropanecarboxylic acid]"
< 0.3,< 0.3,"Cc1noc(-c2ccc(-c3ccc(C4(C(=O)O)CC4)cc3)cc2)c1NC(=O)O[C@H](C)c1cccc(C(F)(F)F)c1 [Compound 22, 1-(4′-{3-Methyl-4-[(R)-1-(3-trifluoromethyl-phenyl)-ethoxycarbonylamino]-isoxazol-5-yl}-biphenyl-4-yl)-cyclopropanecarboxylic acid]"
1 to 10,< 0.3,"COc1cccc([C@@H](C)OC(=O)Nc2c(C)noc2-c2ccc(-c3ccc(C4(C(=O)O)CC4)cc3)cc2)c1 [Compound 23, 1-(4′-{4-[(R)-1-(3-Methoxy-phenyl)-ethoxycarbonylamino]-3-methyl-isoxazol-5-yl}-biphenyl-4-yl)-cyclopropanecarboxylic acid]"
> 10,< 0.3,"COc1ccc([C@@H](C)OC(=O)Nc2c(C)noc2-c2ccc(-c3ccc(C4(C(=O)O)CC4)cc3)cc2)cc1 [Compound 24, 1-(4′-{4-[(R)-1-(4-Methoxy-phenyl)-ethoxycarbonylamino]-3-methyl-isoxazol-5-yl}-biphenyl-4-yl)-cyclopropanecarboxylic acid]"
0.3 to 1,< 0.3,"Cc1noc(-c2ccc(-c3ccc(C4(C(=O)O)CC4)cc3)cc2)c1NC(=O)OC(C)c1cccc(Br)c1 (centres unmarked) [Compound 25, 1-(4′-{4-[1-(3-Bromo-phenyl)-ethoxycarbonylamino]-3-methyl-isoxazol-5-yl}-biphenyl-4-yl)-cyclopropanecarboxylic acid]"
0.3 to 1,< 0.3,"Cc1noc(-c2ccc(-c3ccc(C4(C(=O)O)CC4)cc3)cc2)c1NC(=O)OC(C)c1cccc(Cl)c1 (centres unmarked) [Compound 26, 1-(4′-{4-[1-(3-Chloro-phenyl)-ethoxycarbonylamino]-3-methyl-isoxazol-5-yl}-biphenyl-4-yl)-cyclopropanecarboxylic acid]"
> 10,< 0.3,"Cc1noc(-c2ccc(-c3ccc(C4(C(=O)O)CC4)cc3)cc2)c1NC(=O)O[C@@H](C)c1ccccc1 [Compound 27, 1-{4′-[3-Methyl-4-((S)-1-phenyl-ethoxycarbonylamino)-isoxazol-5-yl]-biphenyl-4-yl}-cyclopropanecarboxylic acid]"
> 10,< 0.3,"Cc1noc(-c2ccc(-c3ccc(C4(C(=O)O)CC4)cc3)cc2)c1NC(=O)OC(C)c1cccc(O)c1 (centres unmarked) [Compound 28, 1-(4′-{4-[1-(3-Hydroxy-phenyl)-ethoxycarbonylamino]-3-methyl-isoxazol-5-yl}-biphenyl-4-yl)-cyclopropanecarboxylic acid]"
